Experimental data taken from patent publication US10034886B2, “GLP-1 receptor modulators” (Celgene International II SÀRL, priority 2014, dated 2018).

Molecular target: T1, GLP-1R (Homo sapiens, UniProt P43220)
T1 construct: host or cells: GLP-1R CRE-bla CHO-K1 cells
Assay: EC20 GLP-1(9-36) PAM cAMP assay: dose response of compound in the presence of fixed concentration of GLP-1(9-36)
Assay type: cell-based
Conditions: GLP-1R CRE-bla CHO-K1 cells, compound dose response with fixed concentration of GLP-1(9-36), read-out: EC20 GLP-1(9-36) PAM EC50
How it was run: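 GLP-1R CRE-bla CHO-K1 cells treated 30 min at 37 °C with 12-point compound dose response plus fixed EC20 GLP-1(9-36), with IBMX, in HBSS/HEPES/0.1% BSA pH 7.4. Total cAMP measured by luminescent detection against standard curve; EC50 and Emax from non-linear regression.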

T1 sequence (P43220 24-463): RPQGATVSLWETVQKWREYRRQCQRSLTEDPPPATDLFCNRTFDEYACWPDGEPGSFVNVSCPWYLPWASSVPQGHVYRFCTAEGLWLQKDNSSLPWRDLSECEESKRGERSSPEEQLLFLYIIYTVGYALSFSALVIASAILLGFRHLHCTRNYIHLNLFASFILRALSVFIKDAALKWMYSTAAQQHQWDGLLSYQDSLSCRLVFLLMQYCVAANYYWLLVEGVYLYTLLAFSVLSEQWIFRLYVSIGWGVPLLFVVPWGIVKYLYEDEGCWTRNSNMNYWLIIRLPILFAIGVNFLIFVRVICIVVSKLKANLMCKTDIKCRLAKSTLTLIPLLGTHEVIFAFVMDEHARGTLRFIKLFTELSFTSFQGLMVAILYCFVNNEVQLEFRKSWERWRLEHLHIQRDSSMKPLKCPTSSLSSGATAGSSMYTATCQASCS
T1 sequence (P01275 100-127 partner limits assumed): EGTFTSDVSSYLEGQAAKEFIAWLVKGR

Row | SMILES | EC50
1 | CC[C@H]1CC[C@H](c2ccc(-c3cnc(-c4ccc(C[C@H](NC(=O)c5cnc(C(C)(C)C)nc5)C(=O)O)cc4)nc3)cc2)CC1 [Compound 1368] | < 800 nM
2 | CCCCc1ccc(-c2ccc(-c3cnc(-c4ccc(C[C@H](NC(=O)c5ccc(C(C)(C)C)s5)C(=O)N5CC(C(=O)O)C5)cc4)nc3)c(F)c2)cc1 [Compound 1226, (S)-1-(2-(5-(tert-butyl)thiophene-2-carboxamido)-3-(4-(5-(4′-butyl-3-fluoro-[1,1′-biphenyl]-4-yl)pyrimidin-2-yl)phenyl)propanoyl)azetidine-3-carboxylic acid] | < 800 nM
3 | CC[C@H]1CC[C@H](c2ccc(-c3cnc(-c4ccc(C[C@H](NC(=O)c5ccc(C(C)(C)C#N)s5)C(=O)O)cc4)nc3)cc2)CC1 [Compound 1373] | < 800 nM
4 | COc1ccc(C(=O)N[C@@H](Cc2ccc(-c3ncc(-c4ccc(OCCCC(C)C)cc4)cn3)cc2)C(=O)N2CC(C(=O)O)C2)cc1 [Compound 1229] | 2500 to 5000 nM
5 | CC(C)(C)c1ccc(C(=O)N[C@@H](Cc2ccc(-c3ncc(N4CCC(c5ccccc5)CC4)cn3)cc2)C(=O)N2CC(C(=O)O)C2)s1 [Compound 1426] | 800 to 2500 nM
6 | CC(C)c1ccc(-c2ccc(-c3cnc(-c4ccc(C[C@H](NC(=O)c5ccc(C(C)(C)C)s5)C(=O)O)cc4)nc3)c(F)c2)cc1 [Compound 1359] | 800 to 2500 nM
7 | CC(C)CCCOc1ccc(-c2cnc(-c3ccc(C[C@H](NC(=O)c4ccc(CC(C)C)cc4)C(=O)N4CC(C(=O)O)C4)cc3)nc2)cc1 [Compound 1236] | 800 to 2500 nM
8 | CCCC[C@H]1CC[C@H](c2ccc(-c3cnc(-c4ccc(C[C@H](NC(=O)c5ccc(C(C)(C)C)s5)C(=O)N[C@H](C)C(=O)O)cc4)nc3)cc2)CC1 [Compound 1317] | < 800 nM
9 | CC[C@H]1CC[C@H](c2ccc(-c3cnc(-c4ccc(C[C@H](NC(=O)c5ccc(C(C)(C)C)s5)C(=O)N[C@@H](CC(N)=O)C(=O)O)cc4)nc3)cc2)CC1 [Compound 1325] | < 800 nM
10 | CC[C@H]1CC[C@H](c2ccc(-c3cnc(-c4ccc(C[C@H](NC(=O)c5ccc(C(C)(C)C)s5)C(=O)N[C@H](Cc5c[nH]cn5)C(=O)O)cc4)nc3)cc2)CC1 [Compound 1322] | < 800 nM

Next, values leading:

Row | EC50 | SMILES
11 | < 800 nM | CCC[C@H]1CC[C@H](C2CCN(c3cnc(-c4ccc(C[C@H](NC(=O)c5ccc(C(C)(C)C)s5)C(=O)NCC(=O)O)cc4)nc3)CC2)CC1 [Compound 1461]
12 | 5000 to 10000 nM | Cc1ccc(-c2ccc(-c3cnc(-c4ccc(C[C@H](NC(=O)c5ccc(C(C)(C)C)s5)C(=O)N[C@H](C)C(=O)O)cc4)nc3)s2)cc1 [Compound 1302]
13 | < 800 nM | Cc1ccc(-c2ccc(-c3cnc(-c4ccc(C[C@H](NC(=O)c5ccc(C(C)(C)C)s5)C(=O)N5CC(C(=O)O)C5)cc4)nc3)c(F)c2)c(F)c1 [Compound 1204]

Same assay, conditions: dose response of compound in presence of fixed concentration of GLP-1(9-36), GLP-1R CRE-bla CHO-K1 cells, read-out: EC20 GLP-1(9-36) PAM EC50

Row | SMILES | EC50
14 | CCCCCCCOc1ccc(-c2cnc(-c3ccc(C[C@H](NC(=O)c4ccc(C(C)(C)C)cc4C)C(=O)N4CC[C@H](C(=O)O)C4)cc3)nc2)cc1 [Compound 868] | 800 to 2500 nM
15 | CCCCCCCOc1ccc(-c2cnc(-c3ccc(C[C@H](NC(=O)c4ccc(C(C)(C)C)cc4)C(=O)N[C@H](CCCNC(=O)OCc4ccccc4)C(=O)O)cc3)nc2)cc1 [Compound 575] | 2500 to 5000 nM
16 | CCCCOc1cc(-c2cnc(-c3ccc(C[C@H](NC(=O)c4ccc(C(C)(C)C)s4)C(=O)N[C@H](C)C(=O)O)cc3)nc2)cc(Cl)c1OC(C)C [Compound 1039] | 800 to 2500 nM
17 | CCCCCCCOc1ccc(-c2cnc(-c3ccc(C[C@H](NC(=O)c4ccc(C(C)(C)C)s4)C(=O)NC(C(=O)O)c4cccc(OC)c4)cc3)nc2)cc1 (some centres unmarked) [Compound 629] | 800 to 2500 nM
18 | CCCCCCCc1ccc(-c2cnc(-c3ccc(C[C@H](NC(=O)c4ccc(C(C)(C)C)cc4)C(=O)N[C@H](C)C(=O)O)cc3)nc2)cc1 [Compound 724] | 800 to 2500 nM
19 | CCCCCCCOc1ccc(-c2cnc(-c3ccc(C[C@H](NC(=O)c4ccn(C(C)(C)C)c4)C(=O)N4CC[C@H](C(=O)O)C4)cc3)nc2)cc1 [Compound 1094] | < 800 nM
20 | CC(C)(C)COc1ccc(-c2cnc(-c3ccc(C[C@H](NC(=O)c4ccc(C(C)(C)C)cc4)C(=O)NCCC(=O)O)cc3)nc2)cc1 [Compound 680] | 5000 to 10000 nM
21 | CCCCCCCOc1ccc(-c2cnc(-c3ccc(C[C@H](NC(=O)c4ccc(C(C)C)cc4)C(=O)N4CCC[C@H]4C(=O)O)cc3)nc2)cc1 [Compound 1074] | 800 to 2500 nM
22 | CCCCCCCOc1ccc(-c2cnc(-c3ccc(C[C@H](NC(=O)c4ccc(OC(C)C)cc4)C(=O)NC(C(=O)O)C(O)c4ccccc4)cc3)nc2)cc1 (some centres unmarked) [Compound 950] | 800 to 2500 nM
23 | CC(C)(C)c1ccc(C(=O)N[C@@H](Cc2ccc(-c3ncc(-c4ccc([C@H]5CC[C@H](C)CC5)cc4)cn3)cc2)C(=O)N2CC(C(=O)O)C2)s1 [Compound 1176] | < 800 nM
24 | CCCCCCCOc1ccc(-c2cnc(-c3ccc(C[C@H](NC(=O)c4ccc(C(C)(C)C)s4)C(=O)NC(C(=O)O)[C@@H](C)c4ccccc4)cc3)nc2)cc1 (some centres unmarked) [Compound 897] | 5000 to 10000 nM

Second part, the compound after the results:

Row | EC50 | SMILES
25 | < 800 nM | C[C@@H](NC(=O)[C@H](Cc1ccc(-c2ncc(-c3ccc(OCC(C)(C)C)cc3)cn2)cc1)NC(=O)c1ccc(C(C)(C)C)s1)C(=O)O [Compound 739]
26 | < 800 nM | CCCCCCCOc1ccc(-c2cnc(-c3ccc(C[C@H](NC(=O)c4ccc(C(C)(C)C)cc4)C(=O)NC(C(=O)O)c4cccc(C(F)(F)F)c4)cc3)nc2)cc1 (some centres unmarked) [Compound 545]
27 | < 800 nM | CCCCCCCOc1ccc(-c2cnc(-c3ccc(C[C@H](NC(=O)c4ccc(C(C)(C)C)cc4)C(=O)N[C@H](C(=O)O)[C@@H](C)O)cc3)nc2)cc1 [Compound 450]
28 | 5000 to 10000 nM | CCCCCCCOc1ccc2nc(-c3ccc(C[C@H](NC(=O)c4ccc(C(C)(C)C)cc4)C(=O)O)cc3)ncc2c1 [Compound 673, (S)-2-(4-(tert-butyl)benzamido)-3-(4-(6-(heptyloxy)quinazolin-2-yl)phenyl)propanoic acid]
29 | 800 to 2500 nM | CC(C)CCc1noc(-c2cnc(-c3ccc(C[C@H](NC(=O)c4ccc(C(C)(C)C)cc4)C(=O)NCCC(=O)O)cc3)nc2)n1 [Compound 749]
30 | 800 to 2500 nM | CCCCCCCOc1ccc(-c2cnc(-c3ccc(C[C@H](NC(=O)c4ccc(C(C)(C)C)s4)C(=O)NC4CCC(C(=O)O)C4)cc3)nc2)cc1 (some centres unmarked) [Compound 608]
31 | < 800 nM | CCCCCCCOc1ccc(-c2cnc(-c3ccc(C[C@H](NC(=O)c4ccc(C(C)(C)C)cc4)C(=O)NC(C(=O)O)c4c(C)n[nH]c4C)cc3)nc2)cc1 (some centres unmarked) [Compound 549]
32 | 800 to 2500 nM | CCCCCCCOc1ccc(-c2cnc(-c3ccc(C[C@H](NC(=O)c4ccc(C(C)(C)C)cc4)C(=O)N[C@H](C(=O)O)[C@@H](C)CC)cc3)nc2)cc1 [Compound 449]
33 | 2500 to 5000 nM | CCCCCCCOc1ccc(-c2cnc(-c3ccc(C[C@H](NC(=O)c4ccc(C(C)(C)C)cc4)C(=O)NCCC(=O)O)cc3)nc2)cc1F [Compound 697]
34 | < 800 nM | CC(C)(C)c1ccc(C(=O)N[C@@H](Cc2ccc(-c3ncc(-c4ccc(OCCC5CCCCC5)cc4)cn3)cc2)C(=O)N2CC(C(=O)O)C2)s1 [Compound 945]
35 | 800 to 2500 nM | CCCCCCCOc1ccc(-c2cnc(-c3ccc(C[C@H](NC(=O)c4ccc(C(C)(C)C)s4)C(=O)NC(C(=O)O)C(O)c4ccc(C)cc4)cc3)nc2)cc1 (some centres unmarked) [Compound 900]
36 | 2500 to 5000 nM | C[C@@H](NC(=O)[C@H](Cc1ccc(-c2ncc(-c3ccc(C(=O)c4ccccc4)cc3)cn2)cc1)NC(=O)c1ccc(C(C)(C)C)s1)C(=O)O [Compound 993]
37 | < 800 nM | CCCCCCCOc1ccc(-c2cnc(-c3ccc(C[C@H](NC(=O)c4ccc(CC)cc4)C(=O)N4CC(C(=O)O)C4)cc3)nc2)cc1 [Compound 1108]
38 | 800 to 2500 nM | CCCCCCCOc1ccc(-c2cnc(-c3ccc(C[C@H](NC(=O)c4cnn(C(C)(C)C)c4)C(=O)N4CC(C(=O)O)C4)cc3)nc2)cc1 [Compound 1099]
39 | 800 to 2500 nM | C[C@@H](NC(=O)[C@H](Cc1ccc(-c2ncc(-c3cc4ccccc4s3)cn2)cc1)NC(=O)c1ccc(C(C)(C)C)s1)C(=O)O [Compound 1024]
40 | < 800 nM | CC[C@H]1CC[C@H](c2ccc(-c3cnc(-c4ccc(C[C@H](NC(=O)c5ccc(C(C)(C)C)s5)C(=O)N[C@H](C)C(=O)O)cc4)nc3)cc2)CC1 [Compound 1056, ((S)-2-(5-(tert-butyl)thiophene-2-carboxamido)-3-(4-(5-(4-((1r,4r)-4-ethylcyclohexyl)phenyl)pyrimidin-2-yl)phenyl)propanoyl)-D-alanine]
41 | 5000 to 10000 nM | CCCCCCCOc1ccc(-c2cnc(-c3ccc(C[C@H](NC(=O)c4ccc(C(C)(C)C)cc4)C(=O)N[C@@H](CC(=O)NCCN(C)C)C(=O)O)cc3)nc2)cc1 [Compound 485]
